What was measured:
[1] = cited from earlier work
[2] = system: C57BL/6 mice; experiment: MK801 induced abnormally persistent latent inhibition; assay type: in vivo; details: 4 tone-shock pairings to produce low LI
Method: C57BL/6 mice will be used to investigate latent inhibition (LI) conditioned emotional response cessation of drinking model in mice as described in, e.g., Bay-Richter, et al., Enhanced Latent Inhibition in Dopamine Receptor-Deficient Mice is Sex-Specific for the D1 but not D2 Receptor Subtype: Implications for Antipsychotic Drug Action, Int. J. Neuropsychopharmacol. […] On Day 1 to Day 6, animals will undergo lick training where mice will have access to water in a chamber for 15 minutes and the number of licks per animal will be recorded. […] One group will receive 20 presentations [determined from prior experiments to produce reduced LI in controls] of a 5 second 85 dB tone with a 15 second inter-stimulus interval (pre-exposed group, PE); a control group of non-pre-exposed (NPE) mice will be placed in a testing chamber with access to water withdrawn for an identical period of time but will not receive a tone pre-exposure. […] Number of licks for each animal will be recorded and time taken to complete 80-90 licks (A) and 90-100 licks (B) recorded. […] A suppression ratio (SR) will be calculated according to the formula A/(A+B) yielding a scale of […]. […]
In a sixth series of experiments, the ability of the combined Tropisetron and Varenicline treatment to reverse the MK801 induced abnormally persistent latent inhibition effect will be assessed. […]

Compound | absorption from the gastrointestinal tract ([1]; background statement) | off-target gastrointestinal side effects ([1]; chronic administration, due to 5-HT3 receptor inhibitory activity) | cognitive effects in patients with schizophrenia ([1]; patients with schizophrenia, background statement) | effect of MK801 on latent inhibition [2]
CN1[C@@H]2CC[C@H]1C[C@@H](OC(=O)c1c[nH]c3ccccc13)C2 [Tropisetron] | almost completely absorbed | a reduction in gut transit and constipation | some pro-cognitive effects | 
C[C@]12N[C@H](Cc3ccccc31)c1ccccc12 [MK801] |  |  |  | produce abnormally persistent latent inhibition
